Here are results for three molecules from PMC3517606 (2012).

Assay [1] deals with HTG21 (DNA, G4) GGGTTAGGGTTAGGGTTAGGG
Nature of the assay: absorption titration. The following applies: 100 mM NaCl; 10 mM Tris-HCl, 25 °C.

Assay [2] deals with F21T (DNA, G4) GGGTTAGGGTTAGGGTTAGGG
Nature of the assay: FRET melting. Particulars: 60 mM KCl; 10 mM Tris-HCl, pH 7.4; 1 µM DNA, [Ru]:[DNA] = 2:1.

The subject of assay [3] is HTG21 (DNA, G4) GGGTTAGGGTTAGGGTTAGGG
Nature of the assay: luminescence titration, Scatchard. Particulars: 100 mM KCl; 10 mM Tris-HCl, pH 7.4, 20 °C; 4 µM Ru; DNA concentration in base pairs.

The test system of assay [4] is ds26 (DNA, duplex) CAATCGGATCGAATTCGATCCGATTG
Nature of the assay: emission spectroscopy. Particulars: 100 mM KCl; 10 mM Tris-HCl, pH 7.4; 4 µM Ru, 8 µM DNA.

What is called ΔTm is the shift of the melting midpoint relative to a reference.

On to `Oc1ccc(-c2nc3c4cccnc4c4ncccc4c3[nH]2)cc1.[Ru+2].c1cnc2c(c1)ccc1cccnc12.c1cnc2c(c1)ccc1cccnc12` [Δ-Ru], for which the Kb in assay [1] turned out to be 8.3e+06 M⁻¹; in assay [3], 720000 M⁻¹. Moreover, in assay [2], the ΔTm was found to be 15.0 °C. For the same molecule, in assay [4], the binding entry is “weak”.

On to `Oc1ccc(-c2nc3c4cccnc4c4ncccc4c3[nH]2)cc1.[Ru+2].c1cnc2c(c1)ccc1cccnc12.c1cnc2c(c1)ccc1cccnc12` [Λ-Ru], for which the Kb in assay [1] was determined as 8.9e+06 M⁻¹; in assay [3] it was 930000 M⁻¹. The ΔTm in assay [2] came out at 22.7 °C. The binding entry in assay [4] was “weak”.

With `Oc1ccc(-c2nc3c4cccnc4c4ncccc4c3[nH]2)cc1.[Ru+2].c1cnc2c(c1)ccc1cccnc12.c1cnc2c(c1)ccc1cccnc12` [Λ/Δ-Ru], the thermal shift (ΔTm) in assay [2] is 18.4 °C. Besides, the Kb in assay [3] came to 910000 M⁻¹. Also, the binding result in assay [4] is “weak”.
